Experimental findings from patent US9919941B2, “Multiple uses of amine salts for industrial water treatment” (AMSA, Inc., priority 2012, dated 2018) are described below.

This assay concerns planktonic microbial population of cooling tower water. In words: time-kill biocidal efficacy, hybrid planktonic-sessile procedure: planktonic population. The format is cell-based, natural mixed aerobic microbial population. As to conditions: for Planktonic, 20-24 h, % of Control / Planktonic, 48-54 h, % of Control / Planktonic, 120 h, % of Control / Planktonic CFU/10 mL, 20-24 h / Planktonic CFU/10 mL, 48-54 h / Planktonic CFU/10 mL, 120 h / Planktonic CFU/10 mL, Total / Planktonic, Total, % of Control / reduction in the total planktonic population / activity at 10 ppm: 10 ppm Compound B, others equimolar; for Planktonic, 20-24 h, % of Control / Planktonic, 48-54 h, % of Control / Planktonic, 120 h, % of Control / Planktonic CFU/10 mL, 20-24 h / Planktonic CFU/10 mL, 48-54 h / Planktonic CFU/10 mL, 120 h / Planktonic CFU/10 mL, Total / Planktonic, Total, % of Control / activity at 10 ppm: exposure 110 minutes; for Planktonic CFU/10 mL, 20-24 h: fast growing population; for Planktonic CFU/10 mL, 48-54 h: moderate growth rate population; for Planktonic CFU/10 mL, 120 h: slow growth rate population; for reduction in the total planktonic population: 110 minutes. On the procedure: An experiment was conducted to assess biocidal effectiveness of Compounds A and B and their respective Compounds 13 and 1 anion analogs. Time-kill tests were conducted using a hybrid planktonic-sessile procedure which allowed assessment of biocidal effectiveness against both planktonic and sessile microbial populations. A natural mixed aerobic microbial population in samples collected from an operating cooling tower was used as inoculum for the test. Biocide test concentration for Compound B was 10 ppm. All other products were tested at the equivalent molar concentration. Biocide exposure was 110 minutes. The following procedure was used which generally followed the biocidal testing method of Walter, R. W. and Cooke, L. […] A New Multifunctional Biocide Which Enhances Corrosion Inhibition,” NACE Paper 410, 1997. A water sample was collected from a cooling tower that contained a natural mixed population of microorganisms that grew at different rates when plated on Petrifilm. The populations of cells that grew on Petrifilm in 20-24 hours, 48-54 hours and at 120 hours were treated as separate populations. […] The washers were allowed seven days to develop a biofilm on their surface. Prior to chemical treatment, 10 mL aliquots of the CTW were removed from the beaker and placed into individual exposure test tubes along with a single washer. Test compounds were then added to the individual tubes at equimolar concentrations. All exposure tests including untreated controls were conducted in triplicate (i.e., three washers in separate exposure tubes). After addition of the test compound, the tube was briefly mixed by mild vortexing and again occasionally throughout the exposure time. Determination of residual viable cell population in the bulk water: 1 mL of the water from the exposure tube was plated on petrifilm. A second 1 ml was added to 9 mL tube of Letheen broth and mixed by shaking 10 times. A 1 mL aliquot was plated on petrifilm, a second 1 mL aliquot was added to a 9 ml tube of Butterfields Broth and again shaken 10 times. This serial sequence of plating the dilution and subsequent 1/10 dilution was repeated through 10^-4 to 10^-5 dilution. Determination of colony forming units (CFU) at different incubation times: After plating the various solutions on Petrifilm, the films were incubated at 36° C. for the first 24 hours. At 20 hours the […] read and CFU were recorded. This population was defined as a fast growing population. The […] then incubated for additional time either at 36° C. or room temperature and read at 54 hours. This second population is in addition to the fast growth rate population and was defined as moderate growth rate organisms. Incubation was continued and the […] again after 120 hours. This third population was also treated as separate from the fast and moderate growth rate populations and is referred to as the slow growth rate population. As noted above, each compound was evaluated in triplicate with three separate washers and the results were averaged. Average CFU/mL values were used to calculate total planktonic test population (CFU/10 mL) and total sessile test population (CFU/washer) in each test system.

Read-outs that look alike come from different tables or passages of the source.

Turning to `CCCCCCCCCCOCCCN.O=C(O)CC(O)(CC(=O)O)C(=O)O` [Compound 1, 2-hydroxypropane-1,2,3-tricarboxylic acid salt of aminopropyloxydecane], where the note is “20-24 h incubation”, the “Planktonic, 20-24 h, % of Control” value is listed as 97.9% and the “Planktonic CFU/10 mL, 20-24 h” value turned out to be 970 CFU/10 mL. Further, where the note is “48-54 h incubation”, the “Planktonic, 48-54 h, % of Control” value amounted to 90.3% and the “Planktonic CFU/10 mL, 48-54 h” value is on record as 340,000 CFU/10 mL. Also, under “120 h incubation”, the “Planktonic, 120 h, % of Control” value was 28.4% and the “Planktonic CFU/10 mL, 120 h” value was 2,280,000 CFU/10 mL. The “biocidal effectiveness compared with parent salt (in words)” value (planktonic and sessile populations, same experimental conditions and molar concentration) is “very similar (within experimental error) to those obtained with Compound B”. Where the note is “total population”, the “Planktonic CFU/10 mL, Total” value was 2,620,000 CFU/10 mL and the “Planktonic, Total, % of Control” value came out at 31.1%.

With `CCCCCCCCCCSCCN.Cl` [Compound A, 2-(decylthio)ethanamine hydrochloride], the “reduction in the total planktonic population” value was 97%. Also, the activity at 10 ppm (20-24 h incubation, read-out: Planktonic, 20-24 h, % of Control) worked out at 94.9%. For the same compound, the activity at 10 ppm (48-54 h incubation, read-out: Planktonic, 48-54 h, % of Control) was 3.6%. Further, for the setting “110 min, total population, read-out: Planktonic, Total, % of Control”, the activity at 10 ppm turned out to be 2.9%. For the same compound, for the setting “120 h incubation, read-out: Planktonic, 120 h, % of Control”, the activity at 10 ppm amounted to 2.8%. Besides, the “Planktonic CFU/10 mL, 20-24 h” value (20-24 h incubation) amounted to 940 CFU/10 mL. In addition, where the note is “48-54 h incubation”, the “Planktonic CFU/10 mL, 48-54 h” value is 13,500 CFU/10 mL. The “Planktonic CFU/10 mL, 120 h” value (120 h incubation) is on record as 227,000 CFU/10 mL. In addition, under “total population”, the “Planktonic CFU/10 mL, Total” value was 241,000 CFU/10 mL.

Regarding `CC(=O)O.CCCCCCCCCCOCCCN` [Compound B, ethanoic acid salt of aminopropyloxydecane], the “reduction in the total planktonic population” value was 63%. Moreover, for the setting “20-24 h incubation”, the “Planktonic, 20-24 h, % of Control” value is recorded as 81.7% and the “Planktonic CFU/10 mL, 20-24 h” value came to 810 CFU/10 mL. In addition, for the setting “48-54 h incubation”, the “Planktonic, 48-54 h, % of Control” value amounted to 85.0% and the “Planktonic CFU/10 mL, 48-54 h” value is recorded as 320,000 CFU/10 mL. Besides, where the note is “120 h incubation”, the “Planktonic, 120 h, % of Control” value was 34.6% and the “Planktonic CFU/10 mL, 120 h” value is 2,780,000 CFU/10 mL. For the same compound, for the setting “total population”, the “Planktonic CFU/10 mL, Total” value is 3,100,000 CFU/10 mL and the “Planktonic, Total, % of Control” value is on record as 36.8%.
